How the values were obtained:
[1] = test system: GABAAR subunit combinations co-expressed with human UT; experiment: Patch-clamp of GABA current in CHO co-expressing human UT and combinations of GABAAR subunits; type: cell-based
Experimental: (§1) CHO-K1 cell lines were obtained from American Type Culture Collection (Manassas, VA, USA). The human UT stable CHO (CHO-UT) was generously provided by Dr Christophe Dubessy (Inserm, Rouen University, France) et generated by CHO electroporation with 20 µg pIRES-neo2-UT DNA and 500 µg sterile sonicated salmon sperm DNA using the EasyJect One electroporation system (Equibio, Angleur, Belgium), followed by repetitive rounds of limiting dilution of cells in G-418 (400 µg/ml) for selection. Normal or stable CHO was grown in Ham-F12 medium supplemented with 10% FBS, 1% antibiotic-antimicotic solution and 2 mM glutamine, at 37°C in a humidified incubator with an atmosphere of 5% CO2. The stable CHO-UT medium was supplemented with the antibiotic G-418 (40 µg/ml).
(§2) For transfection, cells were trypsinized (0.05%), triturated in HamF-12 containing 10% FBS media, pelleted by centrifugation, resuspended in 100 µl solution V for nucleofection by an Amaxa Nucleofector Device (Köln, Germany; set to program U-016). Experiments were performed on normal CHO or on the stable CHO-UT cells and transiently transfected with combinations of cDNA encoding α2β3γ2, α2β3γ1, α2β1γ2, α2β3γ1, α2β3, β3γ2 (4 µg of cDNA total/transfection) GABAAR subunits. Cells were seeded on 14-mm poly-L-lysine-coated glass bottom insert dishes at 5×10^5 cells in a volume of 0.5 ml/dish. […]

[2] = test system: α2β3γ1 GABAAR co-expressed with human UT; experiment: Patch-clamp of Iso-evoked current in CHO-UT expressing α2β3γ1 GABAAR; type: cell-based; conditions: hUII 10^−13 to 10^−7 M; Iso 10^−4 M, 2 s; −60 mV
Experimental: as §1, §2

| Substance | Activity on αβ binary complexes [1] | Depression of GABA current, order of subunit combinations [1] | Inhibitory effect on Iso-evoked current, α2β3γ1 [2] |
| --- | --- | --- | --- |
| UII: Urotensin II, species not stated at that place (rUII in astrocytes, hUII in CHO and human cells) | inactive | markedly depressed the GABA current (β3γ2>α2β3γ2>α2β1γ2) |  |
| ETPDCFWKYCV (disulfide) [hUII, human urotensin II, synthesized by solid phase methodology] |  |  | less effective |
